Measured values from patent US11945822B2, “Pyrazolo-triazine and/or pyrazolo-pxrimidine derivatives as selective inhibitor of cyclin dependent kinase” (QURIENT CO., LTD., priority 2018, dated 2024).

Key:
CDK2/Cyclin A = biological target: T1, CDK2/Cyclin A (Homo sapiens, UniProt P24941); test: Enzymatic assay for CDK2 (FRET based LANCE Ultra kinase assay); type: biochemical; conditions: read-out: CDK2 enzymatic activity (IC50 range)
T1 construct: purchased Invitrogen PV6290
Summary of the method: (§1)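 LANCE Ultra TR-FRET: ULight-MBP peptide (68 nM) with ATP at Km, […], 60 min at 23° C. EDTA plus Eu-anti-phospho-MBP added, another 60 min, then 665/615 nm emission read. Compounds tested as 8-dose 4-fold DMSO dilutions.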

CDK1/Cyclin B = biological target: T2, CDK1/Cyclin B (Homo sapiens, UniProt P06493); test: Enzymatic assay for CDK1 (FRET based LANCE Ultra kinase assay); type: biochemical; conditions: read-out: CDK1 enzymatic activity (IC50 range)
T2 construct: purchased Invitrogen PR4768C
Summary of the method: as §1

RPMI-8226 = test: Cellular RPMI-8226 viability assay (CellTiter-Glo, 72 hours); type: cell-based; conditions: Homo sapiens
Protocol: (§2) All cell lines were routinely tested for mycoplasma.
(§3) The effect of the CDK7 inhibitor to inhibit the growth of target cancer cells was evaluated through the 72 hours time period of viability assay. Briefly, the candidate cell line ware plated in 96 well plate at the following density of cells respectively. […] DMSO solvent without compound served as a control and final DMSO concentration less than 0.1%. After 72 hours of incubation at 37° C., 5% CO2 incubator, cells were analyzed for the viability using the CellTiter-Glo Luminescent Cell Viability Assay (Promega, Cat #G7570). All viability assays were performed in duplicate and Luminescence was read using an Envision (Perkin Elmer, USA). Data was analyzed using XLfit software.

CDK5/p25 = biological target: T3, CDK5/p25 (Homo sapiens, UniProt Q00535); test: Enzymatic assay for CDK5 (FRET based LANCE Ultra kinase assay); type: biochemical; conditions: read-out: CDK5 enzymatic activity (IC50 range)
T3 construct: purchased Invitrogen PR8543B
Summary of the method: as §1

CDK7/Cyclin H/MNAT1 = biological target: T4, CDK7/Cyclin H/MNAT1 (Homo sapiens, UniProt P50613); test: Enzymatic assay for CDK7 (FRET based LANCE Ultra kinase assay); type: biochemical; conditions: for IC50: read-out: CDK7 enzymatic activity (IC50 range)
T4 construct: purchased Invitrogen PR6749B
Summary of the method: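 LANCE Ultra TR-FRET kinase assay using a ULight-labeled peptide substrate and a Eu-labeled anti-phospho antibody, with ATP at its Km. Purified CDK/cyclin complex was added to compound after brief centrifugation.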

H460 = test: Cellular H460 viability assay (CellTiter-Glo, 72 hours); type: cell-based; conditions: Homo sapiens, NCI-H460
Summary of the method: (§4)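 Cells plated in 96 wells and exposed to compound 72 h at 37 °C, 5% CO2, final DMSO below 0.1%, DMSO control. Viability by CellTiter-Glo luminescence, duplicate.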

HCT116 = test: Cellular HCT116 viability assay (CellTiter-Glo, 72 hours); type: cell-based; conditions: Homo sapiens, HCT-116
Summary of the method: as §4

MV4-11 = test: Cellular MV4-11 viability assay (CellTiter-Glo, 72 hours); type: cell-based; conditions: Homo sapiens
Summary of the method: as §4

MOLT-4 = test: Cellular MOLT-4 viability assay (CellTiter-Glo, 72 hours); type: cell-based; conditions: Homo sapiens, MOLT4 viability assay
Protocol: as §2, §3

T2 sequence (P06493 whole entry): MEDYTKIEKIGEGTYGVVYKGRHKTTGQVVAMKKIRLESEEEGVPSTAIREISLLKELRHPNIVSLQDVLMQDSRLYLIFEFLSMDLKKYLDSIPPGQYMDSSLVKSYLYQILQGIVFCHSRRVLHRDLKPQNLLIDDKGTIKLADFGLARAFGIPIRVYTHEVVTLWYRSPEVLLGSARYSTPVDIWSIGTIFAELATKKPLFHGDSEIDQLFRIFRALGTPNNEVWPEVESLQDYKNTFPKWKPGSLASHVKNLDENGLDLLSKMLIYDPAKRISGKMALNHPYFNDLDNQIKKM
T2 sequence (P14635 whole entry partner): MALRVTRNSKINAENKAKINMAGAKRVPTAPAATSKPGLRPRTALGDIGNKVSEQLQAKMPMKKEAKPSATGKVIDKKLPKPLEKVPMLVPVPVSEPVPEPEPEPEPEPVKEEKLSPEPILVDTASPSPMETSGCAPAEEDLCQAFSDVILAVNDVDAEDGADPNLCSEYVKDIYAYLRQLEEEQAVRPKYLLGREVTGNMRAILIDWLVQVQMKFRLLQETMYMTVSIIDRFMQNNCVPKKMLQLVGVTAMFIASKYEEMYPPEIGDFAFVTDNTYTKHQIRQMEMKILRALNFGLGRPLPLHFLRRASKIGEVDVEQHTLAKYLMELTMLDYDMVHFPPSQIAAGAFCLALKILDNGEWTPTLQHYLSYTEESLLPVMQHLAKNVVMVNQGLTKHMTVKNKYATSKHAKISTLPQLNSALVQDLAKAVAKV
T3 sequence (Q00535 whole entry): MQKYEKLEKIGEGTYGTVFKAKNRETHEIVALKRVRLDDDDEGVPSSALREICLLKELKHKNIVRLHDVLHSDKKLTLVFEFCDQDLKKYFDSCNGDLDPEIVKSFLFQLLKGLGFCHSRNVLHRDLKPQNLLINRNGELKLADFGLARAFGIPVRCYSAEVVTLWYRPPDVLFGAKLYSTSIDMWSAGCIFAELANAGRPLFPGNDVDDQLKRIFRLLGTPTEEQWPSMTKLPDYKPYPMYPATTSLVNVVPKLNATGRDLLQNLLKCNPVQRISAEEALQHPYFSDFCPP
T3 sequence (Q15078 99-307 partner limits assumed): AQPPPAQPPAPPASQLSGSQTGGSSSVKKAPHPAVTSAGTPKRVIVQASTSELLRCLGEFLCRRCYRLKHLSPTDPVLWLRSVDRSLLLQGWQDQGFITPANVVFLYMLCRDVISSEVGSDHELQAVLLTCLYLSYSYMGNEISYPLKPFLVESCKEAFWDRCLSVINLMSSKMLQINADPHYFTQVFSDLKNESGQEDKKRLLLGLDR
T4 sequence (P50613 whole entry): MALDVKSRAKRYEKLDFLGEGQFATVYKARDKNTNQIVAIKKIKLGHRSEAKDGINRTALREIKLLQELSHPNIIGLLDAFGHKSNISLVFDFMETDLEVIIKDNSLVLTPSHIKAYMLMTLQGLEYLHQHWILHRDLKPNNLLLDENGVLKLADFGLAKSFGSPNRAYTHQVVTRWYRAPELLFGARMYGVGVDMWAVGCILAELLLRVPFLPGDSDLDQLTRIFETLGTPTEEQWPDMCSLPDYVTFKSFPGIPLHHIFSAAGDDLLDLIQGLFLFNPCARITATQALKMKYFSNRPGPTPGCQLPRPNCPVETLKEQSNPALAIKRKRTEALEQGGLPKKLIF
T4 sequence (P51946 whole entry partner): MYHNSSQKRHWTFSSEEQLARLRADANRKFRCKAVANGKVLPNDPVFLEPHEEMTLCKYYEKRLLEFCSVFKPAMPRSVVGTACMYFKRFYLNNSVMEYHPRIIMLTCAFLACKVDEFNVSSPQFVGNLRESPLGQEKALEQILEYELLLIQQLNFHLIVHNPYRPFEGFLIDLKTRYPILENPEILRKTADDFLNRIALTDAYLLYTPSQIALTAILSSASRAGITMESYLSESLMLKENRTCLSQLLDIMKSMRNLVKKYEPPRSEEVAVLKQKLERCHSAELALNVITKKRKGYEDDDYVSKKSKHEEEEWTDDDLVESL
T4 sequence (P51948 whole entry partner): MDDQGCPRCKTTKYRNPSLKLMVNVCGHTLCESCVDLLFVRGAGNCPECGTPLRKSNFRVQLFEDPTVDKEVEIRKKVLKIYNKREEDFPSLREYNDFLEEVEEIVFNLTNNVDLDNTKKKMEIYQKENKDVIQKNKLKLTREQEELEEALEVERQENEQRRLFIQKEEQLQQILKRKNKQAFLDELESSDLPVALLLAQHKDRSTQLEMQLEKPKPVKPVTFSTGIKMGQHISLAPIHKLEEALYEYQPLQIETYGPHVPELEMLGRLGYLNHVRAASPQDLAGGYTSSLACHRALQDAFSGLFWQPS

| SMILES | IC50 (CDK2/Cyclin A) [nM] | IC50 (CDK1/Cyclin B) [nM] | IC50 (RPMI-8226) [nM] | IC50 (CDK5/p25) [nM] | CDK1/CDK7: Selectivity of CDK7 inhibition over CDK1 inhibition (CDK7/Cyclin H/MNAT1) | CDK2/CDK7: Selectivity of CDK7 inhibition over CDK2 inhibition (CDK7/Cyclin H/MNAT1) | CDK5/CDK7: Selectivity of CDK7 inhibition over CDK5 inhibition (CDK7/Cyclin H/MNAT1) | IC50 (CDK7/Cyclin H/MNAT1) [nM] | IC50 (H460) [nM] | IC50 (HCT116) [nM] | IC50 (MV4-11) [nM] | IC50 (MOLT-4) [nM] |
| --- | --- | --- | --- | --- | --- | --- | --- | --- | --- | --- | --- | --- |
| CNC(=O)c1ccccc1CNc1nc(N2CCC(N)CC2)nc2c(C(C)C)cnn12 [Compound 19] | 100 to 1000 | > 1000 | < 1000 | 100 to 1000 | A (A=greater than 200 fold) | B (B=less than 200 fold, but greater than 20 fold) | B (B=less than 200 fold, but greater than 20 fold) | < 100 | – | – | – | – |
| CC(C)c1cnn2c(NCc3ccccc3-c3cc4cc([N+](=O)[O-])ccc4[nH]3)nc(N3CCC(N)CC3)nc12 [Compound 121] | 100 to 1000 | > 1000 | < 1000 | 100 to 1000 | A (A=greater than 200 fold) | B (B=less than 200 fold, but greater than 20 fold) | B (B=less than 200 fold, but greater than 20 fold) | < 100 | < 1000 | – | – | – |
| CC(C)c1cnn2c(NCc3ccccc3-n3cc4cccc(NC(=O)CCCN(C)C)c4n3)nc(N3CCC(N)CC3)nc12 [Compound 126] | 100 to 1000 | > 1000 | < 1000 | 100 to 1000 | A (A=greater than 200 fold) | B (B=less than 200 fold, but greater than 20 fold) | B (B=less than 200 fold, but greater than 20 fold) | < 100 | < 1000 | – | – | – |
| CC(C)c1cnn2c(NCc3cccc4ccc(N)nc34)nc(N3CCC(N)CC3)nc12 [Compound 142] | 100 to 1000 | > 1000 | 1000 to 10000 | 100 to 1000 | A (A=greater than 200 fold) | B (B=less than 200 fold, but greater than 20 fold) | B (B=less than 200 fold, but greater than 20 fold) | < 100 | 1000 to 10000 | – | – | – |
| CC(C)c1cnn2c(NCc3ccccc3NC(=O)c3cccc(NC(=O)CCCN(C)C)c3)nc(N3CCC(N)CC3)nc12 [Compound 89] | > 1000 | > 1000 | – | 100 to 1000 | A (A=greater than 200 fold) | A (A=greater than 200 fold) | B (B=less than 200 fold, but greater than 20 fold) | < 100 | – | 1000 to 10000 | < 1000 | 1000 to 10000 |
| CC(=O)c1ccc2nn(-c3ccccc3CNc3nc(N4CCC(N)CC4)nc4c(C(C)C)cnn34)cc2c1 [Compound 127] | 100 to 1000 | > 1000 | < 1000 | 100 to 1000 | A (A=greater than 200 fold) | B (B=less than 200 fold, but greater than 20 fold) | B (B=less than 200 fold, but greater than 20 fold) | < 100 | < 1000 | – | – | – |
| CC(C)c1cnn2c(NCc3ccccc3-c3cc4ccccc4[nH]3)nc(N3CCC[C@@H](N)C3)nc12 [Compound 131] | > 1000 | > 1000 | 1000 to 10000 | > 1000 | B (B=less than 200 fold, but greater than 20 fold) | B (B=less than 200 fold, but greater than 20 fold) | B (B=less than 200 fold, but greater than 20 fold) | < 100 | – | – | – | – |
| CC(C)c1cnn2c(NCc3ccccc3-c3ccc4c(c3)NC(=O)C(C)(C)O4)nc(N3CCC(N)CC3)nc12 [Compound 138] | 100 to 1000 | 100 to 1000 | < 1000 | < 100 | A (A=greater than 200 fold) | B (B=less than 200 fold, but greater than 20 fold) | C (C=less than 20 fold) | < 100 | < 1000 | – | – | – |
| CC(C)c1cnn2c(NCc3ccccc3-n3cc4c(n3)CCC(=O)C4)nc(N3CCC(N)CC3)nc12 [Compound 132] | > 1000 | > 1000 | 1000 to 10000 | 100 to 1000 | A (A=greater than 200 fold) | B (B=less than 200 fold, but greater than 20 fold) | B (B=less than 200 fold, but greater than 20 fold) | < 100 | 1000 to 10000 | – | – | – |
| CC(C)c1cnn2c(NCc3ccccc3-c3ccc4c(c3)CC(=O)N4)nc(N3CCC(N)CC3)nc12 [Compound 17] | 100 to 1000 | > 1000 | 1000 to 10000 | 100 to 1000 | B (B=less than 200 fold, but greater than 20 fold) | B (B=less than 200 fold, but greater than 20 fold) | C (C=less than 20 fold) | < 100 | 1000 to 10000 | – | – | – |
| CC(C)c1cnn2c(NCc3ccccc3-n3cccn3)nc(-c3ccc(C(=O)N4CCC(N)CC4)cc3)nc12 [Compound 172] | 100 to 1000 | > 1000 | – | 100 to 1000 | A (A=greater than 200 fold) | B (B=less than 200 fold, but greater than 20 fold) | B (B=less than 200 fold, but greater than 20 fold) | < 100 | 1000 to 10000 | 1000 to 10000 | – | 1000 to 10000 |
| CC(C)c1cnn2c(NCc3ccccc3-c3ccc4[nH]c(NC(=O)C5CC5)nc4c3)nc(N3CCC(N)CC3)nc12 [Compound 141] | 100 to 1000 | 100 to 1000 | < 1000 | < 100 | B (B=less than 200 fold, but greater than 20 fold) | B (B=less than 200 fold, but greater than 20 fold) | C (C=less than 20 fold) | < 100 | 1000 to 10000 | – | – | – |
| CC(C)c1cnn2c(NCc3ccccc3N3CC4CCCCC4C3)nc(N3CCC(N)CC3)nc12 (stereo not drawn) [Compound 135] | > 1000 | > 1000 | 1000 to 10000 | > 1000 | A (A=greater than 200 fold) | B (B=less than 200 fold, but greater than 20 fold) | B (B=less than 200 fold, but greater than 20 fold) | < 100 | 1000 to 10000 | – | – | – |
| CC(C)c1cnn2c(NCc3cccc(-n4cccn4)c3)nc(N3CCC(N)CC3)nc12 [Compound 47] | 100 to 1000 | 100 to 1000 | – | < 100 | B (B=less than 200 fold, but greater than 20 fold) | B (B=less than 200 fold, but greater than 20 fold) | C (C=less than 20 fold) | < 100 | < 1000 | < 1000 | – | 1000 to 10000 |
| CC(C)c1cnn2c(NCc3ccccc3-c3ccc4[nH]ncc4c3)nc(N3CCC(N)CC3)nc12 [Compound 137] | < 100 | 100 to 1000 | < 1000 | < 100 | C (C=less than 20 fold) | C (C=less than 20 fold) | C (C=less than 20 fold) | < 100 | < 1000 | – | – | – |
| CC(C)c1cnn2c(NCc3ccccc3-c3cc4ccccc4[nH]3)nc(N3CCCC(N)C3)nc12 (racemic) [Compound 125] | > 1000 | > 1000 | 1000 to 10000 | > 1000 | A (A=greater than 200 fold) | B (B=less than 200 fold, but greater than 20 fold) | B (B=less than 200 fold, but greater than 20 fold) | < 100 | – | – | – | – |
